Measured values from patent CN108129355A, “一种盐酸益母草碱α晶型及其制备方法和应用” (Jingde Xinxing Biological Technology Co Ltd, priority 2018, dated 2018).

What was measured:
Type in all cases: physicochemical
Solubility test (溶解度试验) = settings: stated in words; values of table 2 missing in this copy
[1] = High temperature (60℃) stability
[2] = High humidity (RH92.5%) stability
[3] = Strong light (4500lx±500lx) stability

SMILES: COc1cc(C(=O)OCCCCNC(=N)N)cc(OC)c1O [盐酸益母草碱α晶型, 盐酸益母草碱]
- solubility (Solubility test (溶解度试验)): 较好的溶解性
- crystal form stability (X-ray powder diffraction result) [1]: X-射线粉末衍射结果均未发生变化,仍保持原本晶型
- crystal form stability (X-ray powder diffraction result) [2]: X-射线粉末衍射结果均未发生变化,仍保持原本晶型
- crystal form stability (X-ray powder diffraction result) [3]: X-射线粉末衍射结果均未发生变化,仍保持原本晶型
